Experimental data reported in US20260068882A1, “ARTHROPOD CONTROLLING COMPOSITION” (Firmenich SA, priority 2019, published 2026).
Like-named read-outs stand apart in the source and are kept apart here.

Tests used:
Aedes aegypti = experiment: In vitro Warm Body assay, mosquitoes landing on treated warm body; assay type: in vivo; conditions: for % of mosquitoes' repellency: normalised to landing with 100% ethanol; for reduction of landing: 0.0016% (Table 7)
In short: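 Adapted Warm Body assay with host-seeking, non-blood-fed, sugar-fed A. aegypti Rockefeller females aged 5–10 days (10–12 days in one set); cages held 30 (or 25) females at 150 lux. Landings were counted automatically. Doses in ethanol were 0.0016%, 0.04% and 1% in triplicate, or a single replicate across 0.0016–1%.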

Ixodes ricinus = experiment: In vitro Warm Plate Assay for ticks; assay type: in vivo; conditions: for percentage of ticks affected overtime / ticks' repellency overtime (in words): 20% (w/w) in ethanol; for ticks' repellency overtime (in words): Table 14; for pest or weed control at 0.0016 % / pest or weed control at 0.0053 % / pest or weed control at 0.008 % / pest or weed control at 0.0119 % / pest or weed control at 0.0178 % / pest or weed control at 0.0267 % / pest or weed control at 0.04 % / pest or weed control at 0.0598 % / pest or weed control at 0.089 % / pest or weed control at 0.2 % / pest or weed control at 0.447 % / pest or weed control at 1 %: Ixodes ricinus, read-out: percentage of ticks affected on the Warm Plate
In short: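 Repellency against last-stage Ixodes ricinus nymphs in an in vitro warm plate assay, compounds diluted in ethanol at 0.4 and 10 mg/mL, 0.0016% to 1%, or 20% (w/w). Ticks walking down or falling from the treated plate scored as affected, walking up as unaffected; groups of 12 ticks, n=2-5.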

[1] = 0.0016% in ethanol (Table 7, one replicate)
[2] = 0.008% in ethanol (Table 7, one replicate)
[3] = 0.0119% in ethanol (Table 7, one replicate)
[4] = 0.04% in ethanol (Table 7, one replicate)
[5] = 0.0598% in ethanol (Table 7, one replicate)
[6] = 0.2% in ethanol (Table 7, one replicate)
[7] = 0.447% in ethanol (Table 7, one replicate)
[8] = 1% in ethanol (Table 7, one replicate)

Structure (SMILES): CCCCN(CCC(=O)OCC)C(C)=O [IR3535, 3-[N-n-butyl-N-acetyl]aminopropionic acid ethylester, reference compound]
- % of mosquitoes' repellency (Aedes aegypti; 0.00032% concentration): 8%
- % of mosquitoes' repellency (Aedes aegypti; 0.0016% concentration): 0%
- mean ± SD numbers of mosquitoes landed on the Warm Body (Aedes aegypti; 0.0016% dilution (Table 4)): 70.0 ± 14.3
- number of mosquitoes landed on the Warm Body (Aedes aegypti; [1]): 70
- % of mosquitoes' repellency (Aedes aegypti; 0.0080% concentration): 0%
- number of mosquitoes landed on the Warm Body (Aedes aegypti; [2]): 63
- number of mosquitoes landed on the Warm Body (Aedes aegypti; [3]): 22
- % of mosquitoes' repellency (Aedes aegypti; 0.040% concentration): 69%
- mean ± SD numbers of mosquitoes landed on the Warm Body (Aedes aegypti; 0.04% dilution (Table 4)): 20.7 ± 2.1
- number of mosquitoes landed on the Warm Body (Aedes aegypti; [4]): 21
- number of mosquitoes landed on the Warm Body (Aedes aegypti; [5]): 6
- % of mosquitoes' repellency (Aedes aegypti; 0.20% concentration): 78%
- number of mosquitoes landed on the Warm Body (Aedes aegypti; [6]): 9
- number of mosquitoes landed on the Warm Body (Aedes aegypti; [7]): 0
- % of mosquitoes' repellency (Aedes aegypti; 1% concentration): 89%
- mean ± SD numbers of mosquitoes landed on the Warm Body (Aedes aegypti; 1% dilution (Table 4)): 7.7 ± 1.6
- number of mosquitoes landed on the Warm Body (Aedes aegypti; [8]): 8
- repulsion (in words) (Aedes aegypti; concentrations lower than 0.04%): only low repulsion
- percentage of ticks affected on the Warm Plate (Ixodes ricinus; 0.0016% in ethanol (Table 12)): 0%
- percentage of ticks affected on the Warm Plate (Ixodes ricinus; 0.0053% in ethanol (Table 12)): 0%
- percentage of ticks affected on the Warm Plate (Ixodes ricinus; 0.008% in ethanol (Table 12)): 8%
- percentage of ticks affected on the Warm Plate (Ixodes ricinus; 0.0119% in ethanol (Table 12)): 0%
- percentage of ticks affected on the Warm Plate (Ixodes ricinus; 0.0178% in ethanol (Table 12)): 0%
- percentage of ticks affected on the Warm Plate (Ixodes ricinus; 0.0267% in ethanol (Table 12)): 0%
- percentage of ticks affected on the Warm Plate (Ixodes ricinus; 0.04% in ethanol (Table 12)): 33%
- percentage of ticks affected on the Warm Plate (Ixodes ricinus; 0.0598% in ethanol (Table 12)): 12%
- percentage of ticks affected on the Warm Plate (Ixodes ricinus; 0.089% in ethanol (Table 12)): 46%
- percentage of ticks affected on the Warm Plate (Ixodes ricinus; 0.2% in ethanol (Table 12)): 57%
- percentage of ticks affected on the Warm Plate (Ixodes ricinus; 0.447% in ethanol (Table 12)): 53%
- percentage of ticks affected on the Warm Plate (Ixodes ricinus; 1% in ethanol (Table 12)): 56%
- percentage of ticks affected overtime (Ixodes ricinus; 0.25 h post-application): 83%
- percentage of ticks affected overtime (Ixodes ricinus; 0.5 h post-application): 40%
- percentage of ticks affected overtime (Ixodes ricinus; 1 h post-application): 83%
- percentage of ticks affected overtime (Ixodes ricinus; 2 h post-application): 58%
- percentage of ticks affected overtime (Ixodes ricinus; 4 h post-application): 58%
- percentage of ticks affected overtime (Ixodes ricinus; 6 h post-application): 0%
- ticks affected (Ixodes ricinus; dose of 0.89%): 46%

Structure (SMILES): CC1CCC(C(C)(C)O)C(O)C1 (stereo not drawn) [PMD, 2-(2-hydroxypropan-2-yl)-5-methylcyclohexan-1-ol, reference compound]
- reduction of landing (Aedes aegypti): 11%
- number of mosquitoes landed on the Warm Body (Aedes aegypti; [1]): 58
- number of mosquitoes landed on the Warm Body (Aedes aegypti; [2]): 40
- number of mosquitoes landed on the Warm Body (Aedes aegypti; [3]): 36
- number of mosquitoes landed on the Warm Body (Aedes aegypti; [4]): 8
- number of mosquitoes landed on the Warm Body (Aedes aegypti; [5]): 1
- number of mosquitoes landed on the Warm Body (Aedes aegypti; [6]): 1
- number of mosquitoes landed on the Warm Body (Aedes aegypti; [8]): 0
- percentage of ticks affected overtime (Ixodes ricinus; 0.25 h post-application): 42%
- percentage of ticks affected overtime (Ixodes ricinus; 0.5 h post-application): 42%
- percentage of ticks affected overtime (Ixodes ricinus; 1 h post-application): 83%
- percentage of ticks affected overtime (Ixodes ricinus; 2 h post-application): 50%
- percentage of ticks affected overtime (Ixodes ricinus; 4 h post-application): 8%
- percentage of ticks affected overtime (Ixodes ricinus; 6 h post-application): 17%
- ticks' repellency overtime (in words) (Ixodes ricinus): not efficient during these first time points
- pest or weed control at 0.0016 % (Ixodes ricinus; 0.0016% in ethanol (Table 12)): 0%
- pest or weed control at 0.0053 % (Ixodes ricinus; 0.0053% in ethanol (Table 12)): 12%
- pest or weed control at 0.008 % (Ixodes ricinus; 0.008% in ethanol (Table 12)): 4%
- pest or weed control at 0.0119 % (Ixodes ricinus; 0.0119% in ethanol (Table 12)): 4%
- pest or weed control at 0.0178 % (Ixodes ricinus; 0.0178% in ethanol (Table 12)): 4%
- pest or weed control at 0.0267 % (Ixodes ricinus; 0.0267% in ethanol (Table 12)): 0%
- pest or weed control at 0.04 % (Ixodes ricinus; 0.04% in ethanol (Table 12)): 12%
- pest or weed control at 0.0598 % (Ixodes ricinus; 0.0598% in ethanol (Table 12)): 19%
- pest or weed control at 0.089 % (Ixodes ricinus; 0.089% in ethanol (Table 12)): 42%
- pest or weed control at 0.2 % (Ixodes ricinus; 0.2% in ethanol (Table 12)): 84%
- pest or weed control at 0.447 % (Ixodes ricinus; 0.447% in ethanol (Table 12)): 96%
- pest or weed control at 1 % (Ixodes ricinus; 1% in ethanol (Table 12)): 96%
- ticks affected (Ixodes ricinus; dose of 0.598%): 19%

Structure (SMILES): c1ccc2c(c1)CC1COCOC21 (stereo not drawn) [ingredient #3, 4,4A,5,9B-tetrahydro-indeno[1,2-D]-1,3-dioxin]
- reduction of landing (Aedes aegypti): 5%
- number of mosquitoes landed on the Warm Body (Aedes aegypti; 0.0016% in ethanol (Table 6)): 76
- number of mosquitoes landed on the Warm Body (Aedes aegypti; [1]): 76
- number of mosquitoes landed on the Warm Body (Aedes aegypti; [2]): 61
- number of mosquitoes landed on the Warm Body (Aedes aegypti; [3]): 42
- number of mosquitoes landed on the Warm Body (Aedes aegypti; 0.04% in ethanol (Table 6)): 6
- number of mosquitoes landed on the Warm Body (Aedes aegypti; [4]): 6
- number of mosquitoes landed on the Warm Body (Aedes aegypti; [5]): 4
- number of mosquitoes landed on the Warm Body (Aedes aegypti; [6]): 0
- number of mosquitoes landed on the Warm Body (Aedes aegypti; [7]): 2
- number of mosquitoes landed on the Warm Body (Aedes aegypti; 1% in ethanol (Table 6)): 2
- number of mosquitoes landed on the Warm Body (Aedes aegypti; [8]): 2
- percentage of ticks being affected (Ixodes ricinus; 0.00032% (Table 9)): 0%
- percentage of ticks being affected (Ixodes ricinus; 0.00071% (Table 9)): 8%
- percentage of ticks being affected (Ixodes ricinus; 0.0016% (Table 9)): 0%
- percentage of ticks being affected (Ixodes ricinus; 0.00357% (Table 9)): 0%
- percentage of ticks being affected (Ixodes ricinus; 0.0053% (Table 9)): 0%
- percentage of ticks being affected (Ixodes ricinus; 0.008% (Table 9)): 0%
- percentage of ticks being affected (Ixodes ricinus; 0.0119% (Table 9)): 0%
- percentage of ticks being affected (Ixodes ricinus; 0.0178% (Table 9)): 0%
- percentage of ticks being affected (Ixodes ricinus; 0.0267% (Table 9)): 0%
- percentage of ticks being affected (Ixodes ricinus; 0.04% (Table 9)): 13%
- percentage of ticks being affected (Ixodes ricinus; 0.0598% (Table 9)): 6%
- percentage of ticks being affected (Ixodes ricinus; 0.089% (Table 9)): 0%
- percentage of ticks being affected (Ixodes ricinus; 0.2% (Table 9)): 24%
- percentage of ticks being affected (Ixodes ricinus; 0.447% (Table 9)): 67%
- percentage of ticks being affected (Ixodes ricinus; 1% (Table 9)): 92%
- percentage of ticks affected overtime (Ixodes ricinus; 0.25 h post-application): 100%
- percentage of ticks affected overtime (Ixodes ricinus; 0.5 h post-application): 92%
- percentage of ticks affected overtime (Ixodes ricinus; 1 h post-application): 8%
- percentage of ticks affected overtime (Ixodes ricinus; 2 h post-application): 17%
- percentage of ticks affected overtime (Ixodes ricinus; 4 h post-application): 15%
- percentage of ticks affected overtime (Ixodes ricinus; 6 h post-application): 33%
- ticks' repellency overtime (in words) (Ixodes ricinus): very effective at the first time points
- pest or weed control at 0.0016 % (Ixodes ricinus; 0.0016% in ethanol (Table 12)): 0%
- pest or weed control at 0.0053 % (Ixodes ricinus; 0.0053% in ethanol (Table 12)): 0%
- pest or weed control at 0.008 % (Ixodes ricinus; 0.008% in ethanol (Table 12)): 0%
- pest or weed control at 0.0119 % (Ixodes ricinus; 0.0119% in ethanol (Table 12)): 0%
- pest or weed control at 0.0178 % (Ixodes ricinus; 0.0178% in ethanol (Table 12)): 0%
- pest or weed control at 0.0267 % (Ixodes ricinus; 0.0267% in ethanol (Table 12)): 0%
- pest or weed control at 0.04 % (Ixodes ricinus; 0.04% in ethanol (Table 12)): 13%
- pest or weed control at 0.0598 % (Ixodes ricinus; 0.0598% in ethanol (Table 12)): 6%
- pest or weed control at 0.089 % (Ixodes ricinus; 0.089% in ethanol (Table 12)): 0%
- pest or weed control at 0.2 % (Ixodes ricinus; 0.2% in ethanol (Table 12)): 24%
- pest or weed control at 0.447 % (Ixodes ricinus; 0.447% in ethanol (Table 12)): 67%
- pest or weed control at 1 % (Ixodes ricinus; 1% in ethanol (Table 12)): 92%
- ticks affected (Ixodes ricinus; dose of 0.598%): 6%

Structure (SMILES): CCCCC[C@@H]1C(=O)CC[C@@H]1CC(=O)OC [ingredient #4, (+)-methyl (1R)-cis-3-oxo-2-pentyl-1-cyclopentaneacetate, reference compound]
- number of mosquitoes landed on the Warm Body (Aedes aegypti; [1]): 66
- number of mosquitoes landed on the Warm Body (Aedes aegypti; [2]): 53
- number of mosquitoes landed on the Warm Body (Aedes aegypti; [4]): 16
- number of mosquitoes landed on the Warm Body (Aedes aegypti; [6]): 17
- number of mosquitoes landed on the Warm Body (Aedes aegypti; [8]): 4
- pest or weed control at 0.0016 % (Ixodes ricinus): 15%
- pest or weed control at 0.0053 % (Ixodes ricinus): 17%
- pest or weed control at 0.008 % (Ixodes ricinus): 8%
- pest or weed control at 0.0119 % (Ixodes ricinus): 0%
- pest or weed control at 0.0178 % (Ixodes ricinus): 33%
- pest or weed control at 0.0267 % (Ixodes ricinus): 36%
- pest or weed control at 0.04 % (Ixodes ricinus): 92%
- pest or weed control at 0.0598 % (Ixodes ricinus): 100%
- pest or weed control at 0.089 % (Ixodes ricinus): 100%
- pest or weed control at 0.2 % (Ixodes ricinus): 100%
- pest or weed control at 0.447 % (Ixodes ricinus): 92%
- pest or weed control at 1 % (Ixodes ricinus): 100%
